Experimental data reported in patent US8999953B2, “Cyclodextrin nanotechnology for ophthalmic drug delivery” (Oculis EHF, priority 2005, dated 2015).
Converted amounts (≈) assume the structure as drawn. Counter-ions that a name gives are not always drawn.

Experiments:
physchem = conditions: aqueous cyclodextrin solution, 22.5 °C, aqueous with cosolvent or surfactant or cyclodextrin, thermodynamic from solid
[1] = Solubility of drugs in pure aqueous cyclodextrin solutions at room temperature (Experiment 6); conditions: 22-23° C.
rabbit eye = experiment: Ocular irritation in rabbits following powder administration; format: in vivo; conditions: for Bulbar redness (points) / Discharge (points): drug eye, pure powder, median (range), 0-3 points
Protocol: Timolol maleate powder was administered to one eye of each rabbit and the other eye was used as control. Both pure timolol maleate powder and freeze-dried with PVP-polymer (2.4% of mass) were tested in 1.0 mg (n=3) and 0.1 mg (n=6) doses. Additionally, four rabbits received 0.1 mg of the pure powder 3 times a day for 8 days. Redness of bulbar conjunctivae and the amount of discharge were rated from photographs (0-3 points, randomized and masked evaluation). Slitlamp examination was also performed. Hematoxylin-eosin (H&E) stained sections of eyes were examined with a light microscope following the 8 days experiment.

[2] = Eye drop formulation properties (osmolarity, viscosity, dissolved dexamethasone); format: physicochemical; conditions: aqueous eye drop suspension with γ-cyclodextrin, aqueous with cosolvent or surfactant or cyclodextrin, thermodynamic from solid; eye drop formulation of EXPERIMENT 4
[3] = Phase-solubility study of dexamethasone with RMβCD or γCD; format: physicochemical; conditions: for Phase-solubility diagram type: room temperature
Protocol: Phase-solubility study was performed to determine the exact amount of RMβCD needed to solubilize dexamethasone in the eye drop medium. An excess amount of dexamethasone was added to aqueous solution containing from 0 to 25% (w/v) RMβCD, benzalkonium chloride (0.02% w/v), EDTA (0.1% w/v), NaCl (0.00 to 0.72% w/v) and HPMC (0.1%). […] The suspensions were allowed to cool to room temperature (22-23° C.) and equilibrate for 7 days. After equilibrium was attained, the suspension was filtered through a 0.45 μm membrane filter, diluted and analyzed by HPLC. […] The phase-solubility was determined to be of AL-type and thus dexamethasone appears to form 1:1 dexamethasone/RMβCD complex in the aqueous eye drop formulation.
Phase-solubility study was performed to determine the exact amount of γCD needed to solubilize dexamethasone. An excess amount of dexamethasone was added to aqueous solution or suspension containing from 0 to 10% (w/v) γCD. […] The suspensions were allowed to cool to room temperature (22-23° C.) and equilibrate for 7 days. After equilibrium was attained, the suspension was filtered through a 0.45 μm membrane filter, and the filtrate diluted and analyzed by HPLC.

Row | SMILES | solubility (physchem) | Drug solubility in aqueous randomly methylated β-cyclodextrin ([1]; Randomly methylated β-cyclodextrin 5% w/v) | Drug solubility in aqueous γ-cyclodextrin ([1]; γ-cyclodextrin 5% w/v) | Ocular irritation (rabbit eye; 0.1 mg) | Slitlamp examination, surface photographs and histology, drug versus control eyes (rabbit eye; 0.1 mg 3 times a day for 8 days) | Signs of irritation (rabbit eye; 1.0 mg and 0.1 mg doses) | Bulbar redness (points) (rabbit eye; 0.1 mg × 24 (8 days, n = 4)) | Discharge (points) (rabbit eye; 0.1 mg × 24 (8 days, n = 4)) | Bulbar redness (points) (rabbit eye; 1 hr. after 0.1 mg (n = 6)) | Discharge (points) (rabbit eye; 1 hr. after 0.1 mg (n = 6)) | Bulbar redness (points) (rabbit eye; 1 hr. after 1.0 mg (n = 3)) | Discharge (points) (rabbit eye; 1 hr. after 1.0 mg (n = 3)) | Bulbar redness (points) (rabbit eye; 24 hr. after 0.1 mg (n = 6)) | Discharge (points) (rabbit eye; 24 hr. after 0.1 mg (n = 6)) | Bulbar redness (points) (rabbit eye; 24 hr. after 1.0 mg (n = 3)) | Discharge (points) (rabbit eye; 24 hr. after 1.0 mg (n = 3)) | solubility at 7 days [2] | Phase-solubility diagram type ([3]; aqueous RMβCD (0-25% w/v) eye drop solutions) | solubility at 7 days ([3]; aqueous γ-cyclodextrin solution/suspension, 22.5 °C, aqueous with cosolvent or surfactant or cyclodextrin, thermodynamic from solid, pure water containing γ-cyclodextrin, at 5% (w/v) γCD concentration, read-out: Maximum dexamethasone solubility) | Phase-solubility diagram type ([3]; γCD 0 to 10% (w/v) in pure water)
1 | CC1(C)O[C@@H]2C[C@H]3[C@@H]4CCC5=CC(=O)C=C[C@]5(C)[C@@]4(F)[C@@H](O)C[C@]3(C)[C@]2(C(=O)CO)O1 [Triamcinolone acetonide] | 1.1 mg/mL (≈ 2.53 mM) | 2.0 mg/mL | 4.4 mg/mL |  |  |  |  |  |  |  |  |  |  |  |  |  |  |  |  | 
2 | CC(C)(C)NC[C@H](O)COc1nsnc1N1CCOCC1 [Timolol maleate powder, Timolol maleate] |  |  |  | negligible ocular irritation | negligible difference between drug and control eyes | No serious or irreversible signs of irritation | 0.8 (0.0-1.5) points | 0.0 (0.0-0.5) points | 1.5 (1.0-2.0) points | 0.0 (0.0-1.5) points | 1.0 (1.0-1.5) points | 1.0 (0.0-2.0) points | 1.0 (0.0-2.0) points | 0.0 (0.0-0.0) points | 1.0 (1.0-1.0) points | 0.3 (0.0-0.8) points |  |  |  | 
3 | C[C@@H]1C[C@H]2[C@@H]3CCC4=CC(=O)C=C[C@]4(C)[C@@]3(F)[C@@H](O)C[C@]2(C)[C@@]1(O)C(=O)CO [Dexamethasone] | 3 mg/mL (≈ 7.64 mM) |  |  |  |  |  |  |  |  |  |  |  |  |  |  |  | 0.7 to 0.9 mg/mL (≈ 1.78 to 2.29 mM) | AL-type | 5.3 mg/mL (≈ 13.5 mM) | BS-type
